Among the data in paper PMC7383614, “Computational Design of Enantiocomplementary Epoxide Hydrolases for Asymmetric Synthesis of Aliphatic and Aromatic Diols” (Chembiochem, 2020) are Km values, retold here.

For this assay, the target named is T1, LEH-P (thermostable limonene epoxide hydrolase) (Rhodococcus erythropolis, UniProt Q9ZAG3, T2A/S15P/A19K/E45K/T76K/T85V/N92K/Y96F, form not given).
T1 construct: gene limA; N-terminal hexa-His tag; expressed in E. coli; dimeric
The assay is described as follows: initial velocities of diol formation, Michaelis-Menten fit. Format: biochemical. The note with it: buffer and temperature of kinetics not given (activity assays: 50 mM HEPES pH 8, 30 °C); variant SS16 from earlier study, mutations not given; read-out: K M [mM] ^[b]. From the text:
initial velocities of diol formation, Michaelis-Menten fit on LEH-P (thermostable limonene epoxide hydrolase)

Structures are written as SMILES.

T1 sequence (Q9ZAG3 whole entry T2A/S15P/A19K/E45K/T76K/T85V/N92K/Y96F, form open): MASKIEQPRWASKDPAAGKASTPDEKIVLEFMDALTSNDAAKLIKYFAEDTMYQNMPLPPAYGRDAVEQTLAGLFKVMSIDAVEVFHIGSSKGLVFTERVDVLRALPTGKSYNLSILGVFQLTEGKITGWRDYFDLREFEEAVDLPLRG

For the compound `C1CC2OC2C1` (stereo not shown) [1 a, cyclopentene oxide], the Km was 54 ± 4 mM.
